According to patent publication US20030166723A1, “Ige production inhibitors” (priority 2000, published 2003):
Read-outs that look alike come from different tables or passages of the source.

What was measured:
NC/Nga mice = assay: Disease score of NC/Nga mice (AD model), oral administration; type: in vivo, mouse
From the text: As a model animal, NC/Nga mouse was used. The NC/Nga mouse is an inbred mouse established in 1957, which is originated from “[…]” mouse, a pet mouse. Long since, it has been known that this mouse is sensitive to X-rays and to ovalbumin-caused anaphylactic shocks. […] Such AD-like phenotype occurs in the ordinary environment but not in a SPF (specific pathogen-free) environment where neither microorganism nor parasite exists, so that the onset of the disease can be controlled. In this view, the mouse was used as a disease model of atopic dermatitis in carrying out the present invention As the model animal, 5-week-old male NC/Nga mice bred in SPF environment, presenting neither dermatitis-like feature nor hyperIgE syndrome were used. To these mice, GLA ethyl ester (degree of purification of 95.98%: manufactured by Idemitsu Material Co., Ltd.) was administered by a stomach tube method in a dosage of 50 mg/individual once every other day starting from 5-week-old to obtain a GLA-administered group composed of 6 animals. On the other hand, as a control, PBS (phosphate buffered saline) instead of GLA ethyl ester was likewise administered in a dosage of 50 μg/individual to obtain a control group composed of 6 animals. In each week from the onset of administration (5 weeks old) up to 19 weeks old, the disease scores of the above-mentioned mice were converted into points according to the method of Matsuda et al. (Int. Immunol., 9, 461-466, 1997). A concrete method is described below. The following 5 items from A to E were scored by a three point full mark scoring system of 0 (none), 1 (slightly aggravated), 2 (moderately aggravated), and 3 (considerably aggravated). In total, 15 points make a full score. […] B (erythema, bleeding); Bleeding from ears and face and erythema on the back of ears were scored. C (edema): Mainly, degree of swelling of ears was scored. D (abrasions, erosion): Abrasions around the face, on the back of ears, and at around the base of arm were scored. E (dryness): Degree of dry skin from the back to the face was scored. As the model animal, 5-week-old male NC/Nga mice bred in SPF environment, presenting neither dermatitis-like feature nor hyperIgE syndrome were used. The animals were divided into each group composed of 10 animals. For the GLA-administered group, GLA ethyl ester (degree of purification of 95.98%: manufactured by Idemitsu Material Co., Ltd.) was administered by a stomach tube method in a dosage of 0.1 mg/individual once every other day. Administration of GLA was performed by using, olive oil containing little essential fatty acid which was added to 0.1 mg of GLA ethyl ester to make 50 μl. For the control group, 50 μl of olive oil alone was likewise administered. The disease score of mice in these groups were calculated every week in the same manner as in Example 1 and total IgE amount in plasma was measured once every other week.

IgE = details: for total IgE amount in plasma compared with control group: stomach tube
Procedure: As the model animal, 5-week-old male NC/Nga mice bred in SPF environment, presenting neither dermatitis-like feature nor hyperIgE syndrome were used. To these mice, GLA ethyl ester (degree of purification of 95.98%: manufactured by Idemitsu Material Co., Ltd.) was administered by a stomach tube method in a dosage of 50 mg/individual once every other day starting from 5-week-old to obtain a GLA-administered group composed of 6 animals. On the other hand, as a control, PBS (phosphate buffered saline) instead of GLA ethyl ester was likewise administered in a dosage of 50 μg/individual to obtain a control group composed of 6 animals.
In addition, blood was collected from the above-mentioned mice at the time of starting the administration (5 weeks old), and at 7, 9, and 11 weeks old and was centrifuged at 1,500 rpm for 10 minutes to obtain plasma. Then, total IgE amount in the plasma was measured by a sandwich ELISA method. A concrete method thereof is described below.
Rat anti-murine IgE monoclonal antibody (manufactured by PharMingen Co.) diluted to […] with coating buffer (0.1 M NaHCO3, 0.5 M NaCl, pH 8.5) was added to each well of a plate (NUNC-IMMUNOPLATE, manufactured by NUNC Inc., A/S) in an amount of 50 μl, and left to stand at 4° C. overnight or at 37° C. for 3 hours, followed by washing the wells with PBS/Tween (PBS, 0.05% Tween-20, pH 7.5) 3 times.
To each well, 200 μl of blocking buffer (PBS containing 2% skimmed milk) was added and incubated at 37° C. for 3 hours, followed by washing the wells with PBS/Tween 3 times.
Then, the above-mentioned murine plasma was diluted 100 folds with dilution buffer (PBS, 2% skimmed milk, 0.25% SDS) to prepare a sample for measurement. Furthermore, murine IgE standard (manufactured by PharmMingen Co.) was diluted with dilution buffer to prepare a standard for measurement.
The samples for measurement and standard were added to each well in amounts of 50 μl/well and incubated at 37° C. for 3 hours, followed by washing the wells with PBS/Tween 3 times.
Biotinylated rat anti-murine IgE antibody (manufactured by PharmMingen Co.) diluted to 2 μg/ml with dilution buffer was added to each well in an amount of 50 μl and incubated at 37° C. for about 3 hours, followed by washing the wells with PBS/Tween 6 times.
Furthermore, alkaline phosphatase-labeled Streptoavidin (manufactured by BioSource, Inc.) diluted to 1.000 folds with dilution buffer was added to the wells in an amount of 50 μl/well and incubated at 37° C. for 1 hour, followed by washing the wells with PBS/Tween 6 times.
As the model animal, 5-week-old male NC/Nga mice bred in SPF environment, presenting neither dermatitis-like feature nor hyperIgE syndrome were used. The animals were divided into each group composed of 10 animals. For the GLA-administered group, GLA ethyl ester (degree of purification of 95.98%: manufactured by Idemitsu Material Co., Ltd.) was administered by a stomach tube method in a dosage of 0.1 mg/individual once every other day. Administration of GLA was performed by using, olive oil containing little essential fatty acid which was added to 0.1 mg of GLA ethyl ester to make 50 μl. For the control group, 50 μl of olive oil alone was likewise administered.
The disease score of mice in these groups were calculated every week in the same manner as in Example 1 and total IgE amount in plasma was measured once every other week.

[1] = tested on: spleen cells of NC/Nga mice
From the text: In this example, the effect of GLA to inhibit IgE production in vitro was studied by an in vitro class switch induction system using spleen cells of the mice. First, spleen cells were collected from NC/Nga mice by the following method. An 8-week-old NC/Nga mouse bred in SPF environment, presenting neither dermatitis-like feature nor hyperIgE syndrome was sacrificed by dislocation fracture of the cervical vertebrae and the spleen was extracted in a sterile condition. The extracted spleen was placed in RPMI-1640 medium (about 3 ml) in a dish, and separated into individual cells with a sterilized pincette. The separated cells were placed in a 15-ml Falcon tube and the membrane of the spleen was removed. Then, the cells suspended in the medium were centrifuged at 1,500 rpm for 5 minutes to recover only the cells. Subsequently, to remove erythrocytes, the recovered cells were suspended in 10 ml of sterilized lysis buffer at 4° C. to cause hemolysis, followed by washing twice with sterilized PBS produced by Milli-Q at 4° C. to collect spleen cells. A portion of the obtained spleen cells was stained with Trypan Blue (Trypan Blue Stain 0.4%: manufactured by LIFE TECHNOLOGIES, INC.) and counted on a hemacytometer. Then, measurement of IgE amount in the culture supernatant in a class switch induction system was performed by the following procedure. Based on the number of cells counted by the above-mentioned method, the cells were inoculated on a plate (96-well cell culture microtest plate, with flat bottom, low evaporation type, made of polystyrene with a lid: manufactured by FALCON CO.) to a concentration of 2×10^5 cells/ml per well. The medium used here contained cytokine IL-4 (100 U/ml) and LPS (10 μg/ml) as stimulants for the IgE class switch induction. To observe the influences of GLA before, during, or after the stimulation for class switch, GLA was added to the media in various concentrations (0, 10, 20, 40, 60, 80, 120, 160 μg/ml) after 0 hour (at the start of culture), 48 hours, or 72 hours from the start. Here, the addition of GLA was performed by diluting it with ethanol to appropriate concentrations and making the final concentration of ethanol to be 0.1%. All the cultures were performed at 37° C. in a 5%-CO2 incubator and the cultured supernatants were recovered after 7 days (after 168 hours). The IgE amounts thereof were measured by a sandwich ELISA method.

[2] = tested on: spleen cells of NC/Nga mice; details: BrdU 60-72 hours
Procedure: Here, the addition of GLA was performed by diluting it with ethanol to appropriate concentrations and making the final concentration of ethanol to be 0.1%.

[3] = oral administration of olive oil containing 0.1 mg GLA ethyl ester

## CCCCC/C=C\C/C=C\C/C=C\CCCCC(=O)O [GLA, γ-linolenic acid]
NC/Nga mice; GLA ethyl ester 0.1 mg/individual in olive oil, stomach tube, once every other day, vs olive oil control, week 9 or thereafter
  average disease score compared with control group: low average scores
NC/Nga mice; GLA ethyl ester 0.1 mg/individual in olive oil, stomach tube, once every other day, vs olive oil control, weeks 15 to 17
  disease score compared with control group: significantly low scores
NC/Nga mice; GLA ethyl ester 50 mg/individual, stomach tube, once every other day from 5 weeks old, vs PBS control, week 11 and weeks 13 to 19
  disease score compared with control group: significant inhibition of the disease score
NC/Nga mice; GLA ethyl ester 50 mg/individual, stomach tube, once every other day, at week 11 or thereafter
  increase of disease score with time: no significant increase was observed
IgE; 2 month-long oral administration to AD-suffering NC/Nga mice with hyperIgE syndrome
  inhibition of IgE production in vivo: no inhibition of IgE production
IgE; GLA ethyl ester 0.1 mg/individual in olive oil, once every other day, at week 13 and thereafter
  increase of total IgE amount in plasma with time: no significant increase was observed
IgE; GLA ethyl ester 0.1 mg/individual in olive oil, once every other day, vs olive oil control, week 13 to week 19
  total IgE amount in plasma compared with control group: significantly low values
IgE; GLA ethyl ester 50 mg/individual, once every other day, vs PBS control, each measurement period (weeks 5, 7, 9, 11)
  total IgE amount in plasma compared with control group: low in total IgE amount
IgE; GLA ethyl ester 50 mg/individual, once every other day, vs PBS control, week 11
  total IgE amount in plasma compared with control group: significantly low
[1]; GLA 40 μg/ml added after 0 hour of culture
  amount of totally produced IgE compared to no-GLA-added lot: about one tenth
[1]; GLA 20 to 60 μμg/ml added after 0 hour
  degree of decrease in total IgE amount produced versus decrease in cell proliferation: significantly greater
[1]; GLA added after 0 hour of culture, 0-160 μg/ml, supernatant after 7 days
  inhibition of IgE production, dependence on concentration: inhibits IgE production dose-dependently
[1]; GLA added after 0 hour of culture, 120 μg/ml, supernatant after 7 days
  inhibition of IgE production (IgE amount in culture supernatant): complete inhibition of the IgE production
[1]; GLA added after 48 hours of culture, above 120 μg/ml
  inhibition of IgE production (IgE amount in culture supernatant): not complete but significant inhibition
[1]; GLA added after 48 hours of culture, up to 80 μg/ml
  inhibition of IgE production (IgE amount in culture supernatant): no IgE inhibition was observed
[1]; GLA added after 72 hours of culture, at the added concentrations measured (10-160 μg/ml)
  inhibition of IgE production (IgE amount in culture supernatant): no significant inhibition of IgE production was observed
[2]; GLA 0-160 μg/ml added after 0 hour
  cell proliferation potency with increase of added GLA concentration: a decrease in the cell proliferation potency was observed
[2]; GLA 40 μg/ml added after 0 hour
  cell proliferation compared to no-GLA-added lot: did not substantially decrease

## CCCCC/C=C\C/C=C\C/C=C\CCCCC(=O)OCC [GLA ethyl ester]
NC/Nga mice; [3]
  disease score (summary of Example 2): significantly low
IgE; [3]
  IgE amount (summary of Example 2): significantly low
